Experimental data reported in ChEMBL document CHEMBL4311982, “Discovery of novel, potent, isosteviol-based antithrombotic agents” (Eur J Med Chem, 2019).

Tests used:
Coagulation factor X = Coagulation factor X (Homo sapiens, UniProt P00742); experiment: Inhibition of human activated Factor X using S-2765 as substrate incubated for 15 mins followed by substrate addition and measured after 1 hr by chromogenic assay
Rattus norvegicus [1] = species: Rattus norvegicus; note: test concentration or dose not given here
[2] = Cmax in Wistar rat at 22 umol/kg, po measured upto 24 hrs by LC-MS/MS analysis; type: ADME, organism-based; design: dose 22 umol/kg, route oral; settings: in vivo
[3] = Half life in Wistar rat at 22 umol/kg, po measured upto 24 hrs by LC-MS/MS analysis; type: ADME, organism-based; settings: in vivo
[4] = AUC (0 to infinity) in Wistar rat at 22 umol/kg, po measured upto 24 hrs by LC-MS/MS analysis; type: ADME, organism-based; design: dose 22 umol/kg, time infinity, route oral; settings: in vivo
[5] = MRT in Wistar rat at 22 umol/kg, po measured upto 24 hrs by LC-MS/MS analysis; type: ADME, organism-based; settings: in vivo
[6] = Clearance in Wistar rat at 22 umol/kg, po measured upto 24 hrs by LC-MS/MS analysis; type: ADME, organism-based; settings: in vivo
[7] = Volume of distribution in Wistar rat at 22 umol/kg, po measured upto 24 hrs by LC-MS/MS analysis; type: ADME, organism-based; settings: in vivo
[8] = Oral bioavailability in Wistar rat at 22 umol/kg measured upto 24 hrs by LC-MS/MS analysis; type: ADME, organism-based; settings: in vivo
[9] = Half life in Wistar rat at 6.6 umol/kg, iv measured upto 24 hrs by LC-MS/MS analysis; type: ADME, organism-based; settings: in vivo
[10] = AUC (0 to infinity) in Wistar rat at 6.6 umol/kg, iv measured upto 24 hrs by LC-MS/MS analysis; type: ADME, organism-based; design: dose 6.6 umol/kg, time infinity, route intravenous; settings: in vivo
[11] = MRT in Wistar rat at 6.6 umol/kg, iv measured upto 24 hrs by LC-MS/MS analysis; type: ADME, organism-based; settings: in vivo
[12] = Clearance in Wistar rat at 6.6 umol/kg, iv measured upto 24 hrs by LC-MS/MS analysis; type: ADME, organism-based; settings: in vivo
[13] = Volume of distribution in Wistar rat at 6.6 umol/kg, iv measured upto 24 hrs by LC-MS/MS analysis; type: ADME, organism-based; settings: in vivo
Rattus norvegicus [14] = species: Rattus norvegicus; remark: listed apart in the source; note: test concentration or dose not given here
Rattus norvegicus [15] = species: Rattus norvegicus; remark: listed apart in the source; note: test concentration or dose not given here

Coagulation factor X, sequence (P00742 41-179 limits assumed): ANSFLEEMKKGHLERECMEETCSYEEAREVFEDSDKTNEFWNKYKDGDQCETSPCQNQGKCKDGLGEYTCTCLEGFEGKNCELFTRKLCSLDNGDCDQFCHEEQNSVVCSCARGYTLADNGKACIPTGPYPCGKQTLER
Coagulation factor X, sequence (P00742 235-488 limits assumed): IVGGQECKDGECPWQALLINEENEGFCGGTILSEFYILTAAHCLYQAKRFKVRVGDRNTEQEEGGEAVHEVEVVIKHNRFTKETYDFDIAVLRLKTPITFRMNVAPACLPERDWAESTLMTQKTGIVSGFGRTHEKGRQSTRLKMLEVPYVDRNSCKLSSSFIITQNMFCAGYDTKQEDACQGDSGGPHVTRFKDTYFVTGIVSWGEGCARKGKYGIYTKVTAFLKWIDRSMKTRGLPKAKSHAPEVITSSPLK

SMILES	Ki (Coagulation factor X)	further results
CCOC(=O)c1ccc(CO/N=C2\C[C@]34CC[C@H]5[C@@](C)(CCC[C@@]5(C)C(=O)OCC)[C@@H]3CC[C@@]2(C)C4)o1	9.88 µM	
CCOC(=O)[C@]1(C)CCC[C@@]2(C)[C@@H]3CC[C@@]4(C)C[C@]3(CC[C@@H]21)C/C4=N\OC/C=C/c1ccc2oc3ccccc3c2c1	21 µM	
CCOC(=O)[C@]1(C)CCC[C@@]2(C)[C@@H]3CC[C@@]4(C)C[C@]3(CC[C@@H]21)C/C4=N\OC/C=C/c1ccc2c(c1)COC2=O	20.7 µM	
CCOC(=O)[C@]1(C)CCC[C@@]2(C)[C@@H]3CC[C@@]4(C)C[C@]3(CC[C@@H]21)C/C4=N/O	2.65 µM	TT (Rattus norvegicus [1]): 18.9 min
CCOC(=O)[C@]1(C)CCC[C@@]2(C)[C@@H]3CC[C@@]4(C)C[C@]3(CC[C@@H]21)C/C4=N\OC/C=C/c1ccc(C#N)cc1	13.3 µM	
CCOC(=O)[C@]1(C)CCC[C@@]2(C)[C@@H]3CC[C@@]4(C)C[C@]3(CC[C@@H]21)C/C4=N\OC/C=C/c1ccccc1	10.7 µM	
CCOC(=O)[C@]1(C)CCC[C@@]2(C)[C@@H]3CC[C@@]4(C)C[C@]3(CC[C@@H]21)C/C4=N\OC/C=C/c1ccc2[nH]c3ccccc3c2c1	26.4 µM	
CCOC(=O)[C@]1(C)CCC[C@@]2(C)[C@@H]3CC[C@@]4(C)C[C@]3(CC[C@@H]21)C/C4=N\OC/C=C/c1ccc2occc2c1	10.3 µM	
CCOC(=O)[C@]1(C)CCC[C@@]2(C)[C@@H]3CC[C@@]4(C)C[C@]3(CC[C@@H]21)C/C4=N\OC/C=C/c1cccc2ccccc12	12.1 µM	
CCOC(=O)[C@]1(C)CCC[C@@]2(C)[C@@H]3CC[C@@]4(C)C[C@]3(CC[C@@H]21)C/C4=N\OCc1cc(Cl)ccc1Cl	9.25 µM	
CCOC(=O)[C@]1(C)CCC[C@@]2(C)[C@@H]3CC[C@@]4(C)C[C@]3(CC[C@@H]21)CC4=O	4.58 µM	TT (Rattus norvegicus [1]): 14.9 min
CCOC(=O)[C@]1(C)CCC[C@@]2(C)[C@@H]3CC[C@@]4(C)C[C@]3(CC[C@@H]21)C/C4=N\OCc1ccc(Cl)c(F)c1	9.79 µM	
CCOC(=O)[C@]1(C)CCC[C@@]2(C)[C@@H]3CC[C@@]4(C)C[C@]3(CC[C@@H]21)C/C4=N\OCc1cccc(Cl)c1	18.1 µM	
C[C@@]12CC[C@@H]3[C@@](CC[C@H]4[C@@]3(C)CCC[C@@]4(C)C(=O)O)(C/C1=N/O)C2	7.99 µM	TT (Rattus norvegicus [1]): 12.9 min
C[C@@]12CC[C@@H]3[C@@](CC[C@H]4[C@@]3(C)CCC[C@@]4(C)C(=O)O)(C[C@H]1O)C2	27.6 µM	TT (Rattus norvegicus [1]): 9.2 min
CCOC(=O)[C@]1(C)CCC[C@@]2(C)[C@@H]3CC[C@@]4(C)C[C@]3(CC[C@@H]21)C[C@H]4O	25.1 µM	TT (Rattus norvegicus [1]): 9.4 min
COC(=O)[C@H](c1ccccc1Cl)N1CCc2sccc2C1 [CLOPIDOGREL]		TT (Rattus norvegicus [1]): 21 min
C[C@@]12CC[C@@H]3[C@@](CC[C@H]4[C@@]3(C)CCC[C@@]4(C)C(=O)O)(CC1=O)C2 [ISOSTEVIOL]	13.4 µM	TT (Rattus norvegicus [1]): 17.2 min
O=C(NC[C@H]1CN(c2ccc(N3CCOCC3=O)cc2)C(=O)O1)c1ccc(Cl)s1 [RIVAROXABAN]		Cmax [2]: 1580 ng/mL; half-life [3]: 3.7 h; AUC(0-inf) [4]: 6980 ng·h/mL; MRT [5]: 5.4 h; CL/F [6]: 25 mL/min; Vd [7]: 8.1 L; bioavailability [8]: 59.7%; half-life [9]: 4.4 h; AUC(0-inf) [10]: 3510 ng·h/mL; MRT [11]: 6.3 h; clearance [12]: 15 mL/min; Vd [13]: 5.5 L; PT (Rattus norvegicus [14]): 19.5 s; APTT (Rattus norvegicus [15]): 21.9 s; TT (Rattus norvegicus [1]): 23.4 min

Continued by falling Ki (Coagulation factor X), values first:

Ki (Coagulation factor X)	SMILES	further results
8.61 µM	C=CCO/N=C1\C[C@]23CC[C@H]4[C@@](C)(CCC[C@@]4(C)C(=O)OCC)[C@@H]2CC[C@@]1(C)C3	
6.17 µM	CCOC(=O)[C@]1(C)CCC[C@@]2(C)[C@@H]3CC[C@@]4(C)C[C@]3(CC[C@@H]21)C/C4=N\OC/C=C/c1ccc(F)cc1	
4.86 µM	CCOC(=O)[C@]1(C)CCC[C@@]2(C)[C@@H]3CC[C@@]4(C)C[C@]3(CC[C@@H]21)C/C4=N\OC/C=C/c1cccc(C(F)(F)F)c1	
4.67 µM	CCOC(=O)[C@]1(C)CCC[C@@]2(C)[C@@H]3CC[C@@]4(C)C[C@]3(CC[C@@H]21)C/C4=N\OC/C=C/c1ccc2[nH]ccc2c1	
4.33 µM	CCOC(=O)[C@]1(C)CCC[C@@]2(C)[C@@H]3CC[C@@]4(C)C[C@]3(CC[C@@H]21)C/C4=N\OCc1ccc(F)cc1	
4.18 µM	CCOC(=O)[C@]1(C)CCC[C@@]2(C)[C@@H]3CC[C@@]4(C)C[C@]3(CC[C@@H]21)C/C4=N\OC/C=C/c1ccc2ncccc2c1	
4.03 µM	CCOC(=O)[C@]1(C)CCC[C@@]2(C)[C@@H]3CC[C@@]4(C)C[C@]3(CC[C@@H]21)C/C4=N\OCc1cc(C)nn1C	
3.6 µM	CCOC(=O)[C@]1(C)CCC[C@@]2(C)[C@@H]3CC[C@@]4(C)C[C@]3(CC[C@@H]21)C/C4=N\OC/C=C/c1ccc2nccnc2c1	
2.88 µM	CCOC(=O)[C@]1(C)CCC[C@@]2(C)[C@@H]3CC[C@@]4(C)C[C@]3(CC[C@@H]21)C/C4=N\OCc1c(C)noc1C	
2.69 µM	CCOC(=O)[C@]1(C)CCC[C@@]2(C)[C@@H]3CC[C@@]4(C)C[C@]3(CC[C@@H]21)C/C4=N\OCc1ccc(C(F)(F)F)cc1	
2.64 µM	CCOC(=O)[C@]1(C)CCC[C@@]2(C)[C@@H]3CC[C@@]4(C)C[C@]3(CC[C@@H]21)C/C4=N\OC/C=C/c1ccc([N+](=O)[O-])cc1	
2.49 µM	CCOC(=O)[C@]1(C)CCC[C@@]2(C)[C@@H]3CC[C@@]4(C)C[C@]3(CC[C@@H]21)C/C4=N\OC/C=C/c1ccc(CN2CCOCC2)cc1	
1.98 µM	CCOC(=O)[C@]1(C)CCC[C@@]2(C)[C@@H]3CC[C@@]4(C)C[C@]3(CC[C@@H]21)C/C4=N\OC/C=C/c1cc(F)c(F)c(F)c1	
1.97 µM	CCOC(=O)[C@]1(C)CCC[C@@]2(C)[C@@H]3CC[C@@]4(C)C[C@]3(CC[C@@H]21)C/C4=N\OC/C=C/c1ccc(OC(F)(F)F)cc1	
1.94 µM	CCOC(=O)[C@]1(C)CCC[C@@]2(C)[C@@H]3CC[C@@]4(C)C[C@]3(CC[C@@H]21)C/C4=N\OCc1cnc(Cl)s1	
1.93 µM	CCOC(=O)[C@]1(C)CCC[C@@]2(C)[C@@H]3CC[C@@]4(C)C[C@]3(CC[C@@H]21)C/C4=N\OC/C=C/c1ccc(-c2cnco2)cc1	
1.91 µM	CCOC(=O)[C@]1(C)CCC[C@@]2(C)[C@@H]3CC[C@@]4(C)C[C@]3(CC[C@@H]21)C/C4=N\OC/C=C/c1c[nH]c(C(=O)OC)c1	
1.81 µM	CCOC(=O)[C@]1(C)CCC[C@@]2(C)[C@@H]3CC[C@@]4(C)C[C@]3(CC[C@@H]21)C/C4=N\OC1CCOCC1	
1.64 µM	CCOC(=O)[C@]1(C)CCC[C@@]2(C)[C@@H]3CC[C@@]4(C)C[C@]3(CC[C@@H]21)C/C4=N\OC/C=C/c1ccc(C(C)=O)cc1	
1.61 µM	CCOC(=O)[C@]1(C)CCC[C@@]2(C)[C@@H]3CC[C@@]4(C)C[C@]3(CC[C@@H]21)C/C4=N\OCC1OCCO1	
1.02 µM	CCOC(=O)[C@]1(C)CCC[C@@]2(C)[C@@H]3CC[C@@]4(C)C[C@]3(CC[C@@H]21)C/C4=N\OCc1ccc(OC(F)(F)F)cc1	
0.785 µM	CCOC(=O)[C@]1(C)CCC[C@@]2(C)[C@@H]3CC[C@@]4(C)C[C@]3(CC[C@@H]21)C/C4=N\OCCN1CCOCC1	
0.515 µM	CCOC(=O)[C@]1(C)CCC[C@@]2(C)[C@@H]3CC[C@@]4(C)C[C@]3(CC[C@@H]21)C/C4=N\OCc1csc2ccc(Cl)cc12	
0.321 µM	CCOC(=O)[C@]1(C)CCC[C@@]2(C)[C@@H]3CC[C@@]4(C)C[C@]3(CC[C@@H]21)C/C4=N\OCc1c(F)c(F)c(F)c(F)c1F	
0.211 µM	CCOC(=O)[C@]1(C)CCC[C@@]2(C)[C@@H]3CC[C@@]4(C)C[C@]3(CC[C@@H]21)C/C4=N\OC/C=C/c1ccc2sccc2c1	
